Paper PMC5484788, “Development of a common carp (Cyprinus carpio) pregnane X receptor (cPXR) transactivation reporter assay and its activation by azole fungicides and pharmaceutical chemicals” (Toxicology in Vitro, 2017)
Where two headings read alike, the source gives them in different places.

Columns and labels:
hPXR = target: T1, hPXR (Homo sapiens, UniProt O75469); assay: human PXR (hPXR) luciferase transactivation reporter assay, pGL4.24-6xPXRE reporter, COS-7 cells; details: for maximal effect (Emax) hPXR, times that of the control: COS-7 cells, 44 h, relative to DMSO control
T1 sequence (O75469 1-473 isoform O75469-7): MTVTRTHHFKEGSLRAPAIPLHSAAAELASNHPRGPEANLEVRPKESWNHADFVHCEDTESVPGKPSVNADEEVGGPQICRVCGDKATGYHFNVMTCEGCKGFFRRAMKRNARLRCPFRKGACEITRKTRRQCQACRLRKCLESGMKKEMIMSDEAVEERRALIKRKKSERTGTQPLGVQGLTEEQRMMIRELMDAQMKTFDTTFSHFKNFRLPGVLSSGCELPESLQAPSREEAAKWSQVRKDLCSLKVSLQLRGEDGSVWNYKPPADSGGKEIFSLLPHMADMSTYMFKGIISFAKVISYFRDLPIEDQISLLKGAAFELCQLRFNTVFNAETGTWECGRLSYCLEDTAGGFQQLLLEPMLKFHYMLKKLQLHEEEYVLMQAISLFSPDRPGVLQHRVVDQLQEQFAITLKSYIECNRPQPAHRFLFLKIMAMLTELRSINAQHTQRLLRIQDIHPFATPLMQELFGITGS
Description: Human PXR (hPXR) clone cDNA was purchased from Promega. […] The following PCR protocol was employed: 21 cycles of denaturation at 98 °C for 10 s, annealing at 60 °C for 5 s and elongation at 72 °C for 15 s. The purified product was then ligated into the eukaryotic expression vector pcDNA3.1(+) (Invitrogen) using the correspondent restriction enzymes and T4 DNA ligase (Promega).
(§1) A reporter vector was constructed based on several variations of the PXR response element (PXRE; Fig. 1). The PXRE occurs either as a direct or everted repeat of the consensus motif […], spaced by between 3 and 8 nucleotides. The PXRE sequence created here was based on that reported in [Xie et al. (2000)]. […] To maximise reporter efficiency, a further PXRE motif was added either side of the previously generated long chain oligo using PCR. […] The following PCR conditions were employed: 21 cycles of denaturation at 98 °C for 10 s, annealing at 60 °C for 5 s and elongation at 72 °C for 30 s. After purification, and using the appropriate restriction enzymes KpnI and HindIII, the obtained fragment was subsequently ligated into the pGL4.24[luc2P/minP] vector (Promega) which contains the firefly (Photinus pyralis) luciferase (luc2P) gene, to create the pGL4.24-6xPXRE reporter construct.
(§2) The cells were maintained at subconfluent densities and sub-cultured when reaching 80% confluency.
(§3) For transfection assays, cells were seeded in 24-well plates at 5 × 10^4 cells well^− 1 in phenol-red free DMEM (supplemented with 10% charcoal/dextran-treated foetal bovine serum (Hyclone). After 24 h, the cells were transiently transfected with 200 ng of either pcDNA3.1(+)/cPXR or pcDNA3.1(+)/hPXR, 400 ng of reporter construct (either MMTV/luc2/pGL4 (Promega) or pGL4.24-6xPXRE) and 100 ng of pRL-TK (driving the Renilla reniformis luciferase gene as an internal control to normalise for variations in transfection efficiency) using Fugene HD transfection reagent (Promega) in serum-free medium according to the manufacturer's protocol. Four hours after transfection, cells were treated with PXR agonists (see below). Forty-eight hours after transfection, cells were lysed and the luciferase activities of the cells were measured by a chemiluminescence assay with Dual-Luciferase Reporter Assay System (Promega) according to the manufacturer's instructions. Luminescence was measured using an Infinite 200 Pro plate reader (Tecan, Grödig, Austria). Promoter activity was calculated as firefly (Photinus pyralis)-luciferase activity/sea pansy (R. reniformis)-luciferase activity. All transfections were done at least three times, employing triplicate sample points in each experiment.
(§4) In addition to the pGL4.24-6xPXRE reporter construct, a commercially available MMTV/luc2/pGL4 reporter vector (Promega) was tested as a reporter plasmid (i.e. for PXRE function), as it is known to contain various nuclear receptor response elements in the promoter region.

cPXR = cPXR (Cyprinus carpio, UniProt A0A1P8P0E9); assay: carp PXR (cPXR) luciferase transactivation reporter assay, pGL4.24-6xPXRE reporter, COS-7 cells; details: for transactivation of cPXR (result in words): concentration-response 10^-11 to 10^-5 M, pGL4.24-6xPXRE reporter
Chain of cPXR (A0A1P8P0E9 entry or part of it): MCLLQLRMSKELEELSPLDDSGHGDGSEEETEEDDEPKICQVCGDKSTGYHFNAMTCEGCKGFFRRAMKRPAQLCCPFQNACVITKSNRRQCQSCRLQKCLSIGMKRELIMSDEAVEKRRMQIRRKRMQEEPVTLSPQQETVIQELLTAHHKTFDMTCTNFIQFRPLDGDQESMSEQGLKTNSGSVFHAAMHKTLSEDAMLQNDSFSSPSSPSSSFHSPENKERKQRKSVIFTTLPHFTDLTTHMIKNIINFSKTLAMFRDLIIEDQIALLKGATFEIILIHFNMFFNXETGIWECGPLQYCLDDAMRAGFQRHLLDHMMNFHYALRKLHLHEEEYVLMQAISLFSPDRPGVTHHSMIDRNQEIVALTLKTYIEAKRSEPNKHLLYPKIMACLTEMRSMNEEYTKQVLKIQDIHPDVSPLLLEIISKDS
Description: For this, cDNA was reverse transcribed from 1 μg of carp liver total RNA as described above and amplified using the Advantage 2 DNA polymerase mix (Clontech) according to the manufacturer's instructions. The resulting PCR product was purified and sequenced to confirm the full sequence length and sub-cloned into pGEM-T Easy vector (Promega) following the manufacturer's recommendations. Plasmid DNA was isolated using the Wizard Plus SV minipreps DNA Purification system (Promega) according to manufacturer's instructions. Using the BamHI and EcoRV sites, the cPXR sequences was subsequently ligated into the eukaryotic expression vector pcDNA3.1(+) (Invitrogen) using the correspondent restriction enzymes (New England Biolabs, Hitchin, UK) and T4 DNA ligase (Promega).
as §1, §2, §3, §4

COS-7 cells = assay: toxicity to COS-7 cells in the transactivation assays (inhibited cell growth); assay type: cell-based; details: 100 μM, in both cPXR and hPXR assays
zebrafish PXR = details: ref Bainy et al., 2013, cited from earlier work
FHM PXR = tested on: FHM PXR; design: method as in Milnes et al., 2008; details: exposure to 50 μM; ref Milnes et al., 2008; cited from earlier work
PXR from the pufferfish = details: 50 μM; ref Milnes et al., 2008; cited from earlier work
[1] = concentration-response 10^-11 to 10^-5 M, pGL4.24-6xPXRE reporter

Row | Compound | transactivation of hPXR (result in words) (hPXR; [1]) | transactivation of cPXR (result in words) (cPXR) | also measured
1 | CC(C)(Oc1ccc(Cl)cc1)C(=O)O [CFA, clofibric acid] | did not induce transactivation | did not induce transactivation | –
2 | CC/C(=C(\c1ccccc1)c1ccc(OCCN(C)C)cc1)c1ccccc1 [TAM, tamoxifen] | – | had no effect | toxicity to COS-7 cells (inhibited cell growth) (COS-7 cells): toxic
3 | CCCC1COC(Cn2cncn2)(c2ccc(Cl)cc2Cl)O1 (stereo not shown) [PCZ, propiconazole] | induced transactivational activity | induced transactivational activity | EC50 (cPXR): 213 nM
4 | O=C(O)Cc1ccccc1Nc1c(Cl)cccc1Cl [DIC, diclofenac] | – | did not induce transactivation | transactivation of hPXR (result in words) (hPXR): did not induce transactivation
5 | Clc1ccccc1C(c1ccccc1)(c1ccccc1)n1ccnc1 [CTZ, clotrimazole] | – | – | zebrafish PXR up-regulation above controls (zebrafish PXR; exposure concentrations between 0.5 and 50 μM, Milnes et al., 2008, Moore et al., 2000): 8 fold; lower activation of zebrafish full-length PXR compared with zebrafish PXR-LBD construct (zebrafish PXR): 90%; FHM PXR up-regulation (FHM PXR): up to 35 times; EC50 (hPXR): 880 nM; maximal effect (Emax) hPXR, times that of the control (hPXR; pGL4.24-6xPXRE reporter): 4.8 x-fold
6 | CC(C)NCC(O)COc1ccc(CC(N)=O)cc1 (stereo not shown) [ATN, atenolol] | did not induce transactivation | did not induce transactivation | –
7 | C#C[C@]1(O)CC[C@H]2[C@@H]3CCc4cc(O)ccc4[C@H]3CC[C@@]21C [EE2, 17α-ethinyloestradiol] | – | activated | concentration at which transactivation of hPXR was induced (hPXR): 10 µM; transactivation of hPXR (result in words) (hPXR): activate hPXR; concentration at which transactivation of cPXR was induced (cPXR; only concentration giving induction, range 10^-11 to 10^-5 M): 10 µM
8 | Cc1ccc(C)c(OCCCC(C)(C)C(=O)O)c1 [GEM, gemfibrozil] | did not induce transactivation | did not induce transactivation | –
9 | CC(=O)N1CCN(c2ccc(OCC3COC(Cn4ccnc4)(c4ccc(Cl)cc4Cl)O3)cc2)CC1 (stereo not shown) [KTZ, ketoconazole] | had no effect | had no effect | –
10 | CC(C)Cc1ccc(C(C)C(=O)O)cc1 (stereo not shown) [IBU, ibuprofen] | – | did not induce transactivation | –
11 | CC(C)NCC(O)COc1cccc2ccccc12 (stereo not shown) [Propranolol, propranolol] | – | – | EC50 (hPXR): 44 nM
12 | CO[C@H]1/C=C/O[C@@]2(C)Oc3c(C)c(O)c4c(O)c(c(/C=N/N5CCN(C)CC5)c(O)c4c3C2=O)NC(=O)/C(C)=C\C=C\[C@H](C)[C@H](O)[C@@H](C)[C@@H](O)[C@@H](C)[C@H](OC(C)=O)[C@@H]1C [RIF, rifampicin] | – | not activated | activation of pufferfish PXR (PXR from the pufferfish): activate; activation of hPXR compared with control, single concentration (hPXR; 1 μM (10^-6 M), pGL4.24-6xPXRE reporter, reporter plasmid comparison): significant activation; maximal effect (Emax) hPXR, times that of the control (hPXR; pGL4.24-6xPXRE reporter): 6.4 x-fold
13 | Clc1ccc(COC(Cn2ccnc2)c2ccc(Cl)cc2Cl)c(Cl)c1 (stereo not shown) [MCZ, miconazole] | induced transactivational activity | – | –
